Assay results from PMC11967795 (Advanced Science, 2025).

Legend:
[1] = target: T1, RhuA (rRhuA; R. anatipestifer haemin uptake protein A) (Riemerella anatipestifer, UniProt J9QZE1); assay: SDS-PAGE and ECL detection of bound haemin; format: binding; settings: positive control
T1 construct: gene B739_1417; recombinant
T1 sequence (J9QZE1 17-210): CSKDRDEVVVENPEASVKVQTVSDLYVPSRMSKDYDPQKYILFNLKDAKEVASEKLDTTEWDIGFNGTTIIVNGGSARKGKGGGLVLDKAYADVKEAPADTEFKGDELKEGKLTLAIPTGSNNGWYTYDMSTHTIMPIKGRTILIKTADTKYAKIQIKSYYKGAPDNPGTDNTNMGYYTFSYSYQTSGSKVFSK

[2] = target: recombinant RhuH protein (R. anatipestifer haem uptake protein haemophore), mature, without signal peptide (Riemerella anatipestifer CH-1); assay: SEC; purified recombinant apo RhuH on size exclusion chromatography; elution compared with the 35 kDa of the sequence

Row | Compound | SDS-PAGE and ECL detection of bound haemin [1] | stoichiometry N [2]
1 | C=CC1=C(C)C2=Cc3c(C=C)c(C)c4[n]3[Fe]([Cl])[n]3c(c(C)c(CCC(=O)O)c3=CC3=NC(=C4)C(C)=C3CCC(=O)O)=CC1=N2 [haemin] | haemin signal was detected in the haem binding protein rRhuA (positive control) incubated with haemin | –
2 | recombinant RhuH protein (R. anatipestifer haem uptake protein haemophore), mature, without signal peptide (natural protein) | – | 2
